Measurements taken from patent US6737383B1, “Herbicidal oxadiazolidines” (priority 1999, dated 2004).

What was measured:
velvetleaf = assay: Test B pre/postemergence velvetleaf; format: in vivo, Abutilon theophrasti
Outline: (§1)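 Herbicidal effect was estimated by eye on a ten-point control scale after plants spent twelve to sixteen days in a greenhouse following soil or foliar treatment. Foliar sprays targeted plants at one to four leaves; all doses were formulated in a non-phytotoxic solvent with surfactant.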

crabgrass = assay: Test B pre/postemergence crabgrass; format: in vivo, Digitaria sanguinalis
Outline: as §1

cocklebur = assay: Test B pre/postemergence cocklebur; format: in vivo, Xanthium strumarium
Outline: as §1

surinam grass = assay: Test B pre/postemergence surinam grass; format: in vivo, Brachiaria decumbens
Outline: as §1

bedstraw = assay: Test B pre/postemergence bedstraw; format: in vivo, Galium aparine
Outline: as §1

giant foxtail = assay: Test B pre/postemergence giant foxtail; format: in vivo, Setaria faberii
Outline: as §1

duck salad = assay: Test B flood test duck salad; format: in vivo, Heteranthera limosa; conditions: for Plant response rating, Ducksalad (0 to 10 scale, 0 is no effect, 10 is complete control): Rate 62 g/ha, Pre-emergence; for Plant response rating, Ducksalad (0 to 10 scale, 0 is no effect, 10 is complete control) / Ducksalad plant response rating (0 to 10 scale, 0 is no effect, 10 is complete control): flood test species, visual evaluation after twelve to sixteen days; for Ducksalad plant response rating (0 to 10 scale, 0 is no effect, 10 is complete control): Rate 125 g/ha, under heading Pre-emergence
Outline: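 Plants were grown to the 2-leaf stage before treatment with test chemical, then held in a greenhouse for twelve to sixteen days. Injury was visually rated against untreated controls on a 0–10 scale, where 0 is no effect and 10 is complete control.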

purple nutsedge = assay: Test B pre/postemergence purple nutsedge; format: in vivo, Cyperus rotundus
Outline: as §1

rape = assay: Test B pre/postemergence rape; format: in vivo, Brassica napus
Outline: as §1

corn = assay: Test B pre/postemergence corn; format: in vivo, Zea mays
Outline: as §1

soybean = assay: Test B pre/postemergence soybean; format: in vivo, Glycine max
Outline: as §1

sugar beet = assay: Test B pre/postemergence sugar beet; format: in vivo, Beta vulgaris
Outline: as §1

wheat = assay: Test B pre/postemergence wheat; format: in vivo, Triticum aestivum
Outline: as §1

pigweed = assay: Test B pre/postemergence pigweed; format: in vivo, Amaranthus retroflexus
Outline: as §1

morningglory = assay: Test B pre/postemergence morningglory; format: in vivo, Ipomoea hederacea
Outline: as §1

[1] = Postemergence, Rate 62 g/ha, scale 0 to 10, 0 is no effect, 10 is complete control
[2] = Postemergence, Rate 125 g/ha, scale of 0 to 10 where 0 is no effect and 10 is complete control
[3] = Postemergence, Rate 250 g/ha, scale of 0 to 10, 0 is no effect, 10 is complete control
[4] = Postemergence, Rate 500 g/ha, scale of 0 to 10 where 0 is no effect and 10 is complete control
[5] = Preemergence, Rate 62 g/ha, scale 0 to 10 (0 no effect, 10 complete control)
[6] = Preemergence, Rate 125 g/ha, scale of 0 to 10 where 0 is no effect and 10 is complete control
[7] = Preemergence, Rate 500 g/ha, scale of 0 to 10 where 0 is no effect and 10 is complete control
[8] = Rate 250 g/ha, Pre-emergence (flood test species), scale 0 to 10, 0 is no effect, 10 is complete control
[9] = Rate 500 g/ha, Pre-emergence section of Table B, 0 to 10 scale (0 no effect, 10 complete control)

## CCC(C)n1c(=O)on(C(=O)N(c2ccccc2)C(C)C)c1=O (stereo not shown) [Compound 610]
velvetleaf; [1]
  Plant response rating, Velvetleaf: 0
velvetleaf; [2]
  Plant response rating, Velvetleaf: 3
velvetleaf; [3]
  Velvetleaf plant response rating: 7
velvetleaf; [4]
  Plant response rating, Velvetleaf: 7
velvetleaf; [5]
  Velvetleaf plant response rating: 7
velvetleaf; [6]
  Velvetleaf plant response rating: 7
velvetleaf; [7]
  Plant response rating, Velvetleaf: 10
crabgrass; [1]
  Plant response rating, Crabgrass: 9
crabgrass; [2]
  Plant response rating, Crabgrass: 9
crabgrass; [3]
  Crabgrass plant response rating: 9
crabgrass; [4]
  Plant response rating, Crabgrass: 9
crabgrass; [5]
  Crabgrass plant response rating: 9
crabgrass; [6]
  Crabgrass plant response rating: 10
crabgrass; [7]
  Plant response rating, Crabgrass: 10
cocklebur; [1]
  Plant response rating, Cocklebur: 0
cocklebur; [2]
  Plant response rating, Cocklebur: 1
cocklebur; [3]
  Cocklebur plant response rating: 0
cocklebur; [4]
  Plant response rating, Cocklebur: 2
cocklebur; [5]
  Cocklebur plant response rating: 0
cocklebur; [6]
  Cocklebur plant response rating: 0
cocklebur; Preemergence, Rate 250 g/ha
  Cocklebur plant response rating (0 to 10 scale): 0
cocklebur; [7]
  Plant response rating, Cocklebur: 3
Surinam grass; [1]
  Plant response rating, B. signalgrass: 0
Surinam grass; [2]
  Plant response rating, B. signalgrass: 6
Surinam grass; [3]
  B. signalgrass plant response rating: 7
Surinam grass; [4]
  Plant response rating, B. signalgrass: 9
Surinam grass; [5]
  B. signalgrass plant response rating: 6
Surinam grass; [6]
  B. signalgrass plant response rating: 8
Surinam grass; Preemergence, Rate 250 g/ha
  B. signalgrass plant response rating (0 to 10 scale, 0 is no effect, 10 is complete control): 9
Surinam grass; [7]
  B. signalgrass plant response rating: 10
bedstraw; [1]
  Plant response rating, Bedstraw: 0
bedstraw; [3]
  Bedstraw plant response rating: 4
bedstraw; [4]
  Plant response rating, Bedstraw: 9
bedstraw; [7]
  Bedstraw plant response rating: 10
Giant foxtail; [1]
  Plant response rating, Giant foxtail: 8
Giant foxtail; [2]
  Plant response rating, Giant foxtail: 7
Giant foxtail; [3]
  Giant foxtail plant response rating: 9
Giant foxtail; [4]
  Plant response rating, Giant foxtail: 9
Giant foxtail; [5]
  Giant foxtail plant response rating: 9
Giant foxtail; [6]
  Giant foxtail plant response rating: 10
Giant foxtail; [7]
  Plant response rating, Giant foxtail: 10
Duck salad
  Plant response rating, Ducksalad (0 to 10 scale, 0 is no effect, 10 is complete control): 0
  Ducksalad plant response rating (0 to 10 scale, 0 is no effect, 10 is complete control): 0
Duck salad; [8]
  Ducksalad plant response rating: 0
Duck salad; [9]
  Ducksalad plant response rating: 7
Purple nutsedge; [1]
  Plant response rating, Nutsedge: 0
Purple nutsedge; [2]
  Plant response rating, Nutsedge: 0
Purple nutsedge; [3]
  Nutsedge plant response rating: 5
Purple nutsedge; [4]
  Plant response rating, Nutsedge: 6
Purple nutsedge; [5]
  Nutsedge plant response rating: 0
Purple nutsedge; [6]
  Nutsedge plant response rating: 0
Purple nutsedge; [7]
  Plant response rating, Nutsedge: 3
rape; [1]
  Plant response rating, Rape: 0
rape; [2]
  Plant response rating, Rape: 2
rape; [3]
  Rape plant response rating: 3
rape; [4]
  Plant response rating, Rape: 5
rape; [5]
  Rape plant response rating: 3
rape; [6]
  Rape plant response rating: 8
rape; [7]
  Plant response rating, Rape: 10
corn; [1]
  Plant response rating, Corn: 0
corn; [2]
  Plant response rating, Corn: 0
corn; [3]
  Corn plant response rating: 2
corn; [4]
  Plant response rating, Corn: 5
corn; [5]
  Corn plant response rating: 0
corn; [6]
  Corn plant response rating: 3
corn; Preemergence, Rate 250 g/ha
  Corn plant response rating (0 to 10 scale): 7
corn; [7]
  Plant response rating, Corn: 8
soybean; [1]
  Plant response rating, Soybean: 5
soybean; [2]
  Plant response rating, Soybean: 7
soybean; [3]
  Soybean plant response rating: 8
soybean; [4]
  Plant response rating, Soybean: 9
soybean; [5]
  Soybean plant response rating: 0
soybean; [6]
  Soybean plant response rating: 6
soybean; [7]
  Plant response rating, Soybean: 8
Sugar beet; [1]
  Plant response rating, Sugarbeets: 0
Sugar beet; [2]
  Plant response rating, Sugarbeets: 0
Sugar beet; [3]
  Sugarbeets plant response rating: 0
Sugar beet; [4]
  Plant response rating, Sugarbeets: 0
Sugar beet; [5]
  Sugarbeets plant response rating: 3
Sugar beet; [6]
  Sugarbeets plant response rating: 7
Sugar beet; [7]
  Plant response rating, Sugarbeets: 8
wheat; [1]
  Plant response rating, Wheat: 0
wheat; [2]
  Plant response rating, Wheat: 1
wheat; [3]
  Wheat plant response rating: 4
wheat; [4]
  Plant response rating, Wheat: 5
wheat; [5]
  Wheat plant response rating: 2
wheat; [6]
  Wheat plant response rating: 2
wheat; [7]
  Plant response rating, Wheat: 6
pigweed; [1]
  Plant response rating, Redroot pigweed: 0
pigweed; [2]
  Plant response rating, Redroot pigweed: 2
pigweed; [3]
  Redroot pigweed plant response rating: 6
pigweed; [4]
  Plant response rating, Redroot pigweed: 7
pigweed; [5]
  Redroot pigweed plant response rating: 10
pigweed; [6]
  Redroot pigweed plant response rating: 10
pigweed; [7]
  Plant response rating, Redroot pigweed: 10
morningglory; [1]
  Plant response rating, Morningglory: 8
morningglory; [2]
  Plant response rating, Morningglory: 8
morningglory; [3]
  Morningglory plant response rating: 8
morningglory; [4]
  Plant response rating, Morningglory: 9
morningglory; [5]
  Morningglory plant response rating: 0
morningglory; [6]
  Morningglory plant response rating: 3
morningglory; [7]
  Plant response rating, Morningglory: 8

## CCC(C)n1c(=O)on(C(=O)N(c2ccccc2)C(C)C)c1=O (stereo not shown) [Compound 611]
velvetleaf; [1]
  Plant response rating, Velvetleaf: 0
velvetleaf; [2]
  Plant response rating, Velvetleaf: 3
velvetleaf; [3]
  Velvetleaf plant response rating: 5
velvetleaf; [4]
  Plant response rating, Velvetleaf: 5
velvetleaf; [5]
  Velvetleaf plant response rating: 6
velvetleaf; [6]
  Velvetleaf plant response rating: 6
velvetleaf; [7]
  Plant response rating, Velvetleaf: 8
crabgrass; [1]
  Plant response rating, Crabgrass: 8
crabgrass; [2]
  Plant response rating, Crabgrass: 8
crabgrass; [3]
  Crabgrass plant response rating: 9
crabgrass; [4]
  Plant response rating, Crabgrass: 9
crabgrass; [5]
  Crabgrass plant response rating: 9
crabgrass; [6]
  Crabgrass plant response rating: 10
crabgrass; [7]
  Plant response rating, Crabgrass: 10
cocklebur; [1]
  Plant response rating, Cocklebur: 0
cocklebur; [2]
  Plant response rating, Cocklebur: 2
cocklebur; [3]
  Cocklebur plant response rating: 2
cocklebur; [4]
  Plant response rating, Cocklebur: 3
cocklebur; [5]
  Cocklebur plant response rating: 0
cocklebur; [6]
  Cocklebur plant response rating: 0
cocklebur; Preemergence, Rate 250 g/ha
  Cocklebur plant response rating (0 to 10 scale): 0
cocklebur; [7]
  Plant response rating, Cocklebur: 1
Surinam grass; [1]
  Plant response rating, B. signalgrass: 0
Surinam grass; [2]
  Plant response rating, B. signalgrass: 3
Surinam grass; [3]
  B. signalgrass plant response rating: 7
Surinam grass; [4]
  Plant response rating, B. signalgrass: 8
Surinam grass; [5]
  B. signalgrass plant response rating: 7
Surinam grass; [6]
  B. signalgrass plant response rating: 7
Surinam grass; Preemergence, Rate 250 g/ha
  B. signalgrass plant response rating (0 to 10 scale, 0 is no effect, 10 is complete control): 10
Surinam grass; [7]
  B. signalgrass plant response rating: 10
bedstraw; [3]
  Bedstraw plant response rating: 6
bedstraw; [4]
  Plant response rating, Bedstraw: 9
bedstraw; [5]
  Bedstraw plant response rating: 1
bedstraw; [6]
  Bedstraw plant response rating: 1
bedstraw; [7]
  Bedstraw plant response rating: 10
Giant foxtail; [1]
  Plant response rating, Giant foxtail: 8
Giant foxtail; [2]
  Plant response rating, Giant foxtail: 8
Giant foxtail; [3]
  Giant foxtail plant response rating: 9
Giant foxtail; [4]
  Plant response rating, Giant foxtail: 9
Giant foxtail; [5]
  Giant foxtail plant response rating: 10
Giant foxtail; [6]
  Giant foxtail plant response rating: 10
Giant foxtail; [7]
  Plant response rating, Giant foxtail: 10
Duck salad
  Plant response rating, Ducksalad (0 to 10 scale, 0 is no effect, 10 is complete control): 0
  Ducksalad plant response rating (0 to 10 scale, 0 is no effect, 10 is complete control): 0
Duck salad; [8]
  Ducksalad plant response rating: 0
Duck salad; [9]
  Ducksalad plant response rating: 1
Purple nutsedge; [1]
  Plant response rating, Nutsedge: 0
Purple nutsedge; [2]
  Plant response rating, Nutsedge: 0
Purple nutsedge; [3]
  Nutsedge plant response rating: 3
Purple nutsedge; [4]
  Plant response rating, Nutsedge: 3
Purple nutsedge; [5]
  Nutsedge plant response rating: 0
Purple nutsedge; [6]
  Nutsedge plant response rating: 0
Purple nutsedge; [7]
  Plant response rating, Nutsedge: 2
rape; [1]
  Plant response rating, Rape: 0
rape; [2]
  Plant response rating, Rape: 0
rape; [3]
  Rape plant response rating: 2
rape; [4]
  Plant response rating, Rape: 3
rape; [5]
  Rape plant response rating: 3
rape; [6]
  Rape plant response rating: 3
rape; [7]
  Plant response rating, Rape: 10
corn; [1]
  Plant response rating, Corn: 0
corn; [2]
  Plant response rating, Corn: 0
corn; [3]
  Corn plant response rating: 4
corn; [4]
  Plant response rating, Corn: 6
corn; [5]
  Corn plant response rating: 2
corn; [6]
  Corn plant response rating: 3
corn; Preemergence, Rate 250 g/ha
  Corn plant response rating (0 to 10 scale): 9
corn; [7]
  Plant response rating, Corn: 9
soybean; [1]
  Plant response rating, Soybean: 5
soybean; [2]
  Plant response rating, Soybean: 7
soybean; [3]
  Soybean plant response rating: 8
soybean; [4]
  Plant response rating, Soybean: 8
soybean; [5]
  Soybean plant response rating: 2
soybean; [6]
  Soybean plant response rating: 2
soybean; [7]
  Plant response rating, Soybean: 7
Sugar beet; [1]
  Plant response rating, Sugarbeets: 0
Sugar beet; [2]
  Plant response rating, Sugarbeets: 0
Sugar beet; [3]
  Sugarbeets plant response rating: 0
Sugar beet; [4]
  Plant response rating, Sugarbeets: 2
Sugar beet; [5]
  Sugarbeets plant response rating: 2
Sugar beet; [6]
  Sugarbeets plant response rating: 2
Sugar beet; [7]
  Plant response rating, Sugarbeets: 6
wheat; [1]
  Plant response rating, Wheat: 0
wheat; [2]
  Plant response rating, Wheat: 0
wheat; [3]
  Wheat plant response rating: 2
wheat; [4]
  Plant response rating, Wheat: 8
wheat; [5]
  Wheat plant response rating: 1
wheat; [6]
  Wheat plant response rating: 3
wheat; [7]
  Plant response rating, Wheat: 7
pigweed; [1]
  Plant response rating, Redroot pigweed: 0
pigweed; [2]
  Plant response rating, Redroot pigweed: 2
pigweed; [3]
  Redroot pigweed plant response rating: 3
pigweed; [4]
  Plant response rating, Redroot pigweed: 8
pigweed; [5]
  Redroot pigweed plant response rating: 6
pigweed; [6]
  Redroot pigweed plant response rating: 8
pigweed; [7]
  Plant response rating, Redroot pigweed: 10
morningglory; [1]
  Plant response rating, Morningglory: 7
morningglory; [2]
  Plant response rating, Morningglory: 8
morningglory; [3]
  Morningglory plant response rating: 8
morningglory; [4]
  Plant response rating, Morningglory: 8
morningglory; [5]
  Morningglory plant response rating: 0
morningglory; [6]
  Morningglory plant response rating: 0
morningglory; [7]
  Plant response rating, Morningglory: 6
